Measurements taken from PubChem BioAssay AID463203 (Broad Institute, 2010).
Activity calls are given as the source filed them.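 The calls were made as follows: active = more than half of replicate measurements showing over 20% loss of kinase signal relative to plate controls; inconclusive = some but at most half of replicates over 20% loss; inactive = no replicate over 20% signal loss.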

target: Glycogen synthase kinase-3 alpha (Homo sapiens) (UniProt P49840); test: concentration-response blocking of human GSK3A – biochemical, luminescence, cell-free homogeneous, retest, dose response (AID 463203); conditions: GSK-3 alpha enzyme, ADP-Glo luminescence, 60 min
Sequence (P49840 whole entry, looked up): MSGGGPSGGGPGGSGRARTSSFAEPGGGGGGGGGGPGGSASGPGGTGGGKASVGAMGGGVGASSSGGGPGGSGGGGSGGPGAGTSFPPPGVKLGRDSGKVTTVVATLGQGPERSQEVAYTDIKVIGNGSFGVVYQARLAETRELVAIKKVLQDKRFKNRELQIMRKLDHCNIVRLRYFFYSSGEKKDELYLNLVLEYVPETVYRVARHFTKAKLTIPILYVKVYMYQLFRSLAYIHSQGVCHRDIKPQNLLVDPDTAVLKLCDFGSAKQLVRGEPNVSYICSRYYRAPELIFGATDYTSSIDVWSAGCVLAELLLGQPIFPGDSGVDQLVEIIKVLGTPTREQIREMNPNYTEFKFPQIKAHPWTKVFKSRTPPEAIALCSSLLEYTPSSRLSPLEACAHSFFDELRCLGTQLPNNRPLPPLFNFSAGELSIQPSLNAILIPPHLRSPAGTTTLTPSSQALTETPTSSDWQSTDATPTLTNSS

| SMILES | AC50 |
| --- | --- |
| CC(=O)c1sc(NC(=O)c2ccc3c(c2)OCO3)nc1C | > 30 µM (inactive) |
| COc1ccc(-c2cc(C(F)(F)F)nc(SCC(=O)NCc3ccco3)n2)cc1OC | > 30 µM (inactive) |
| O=C(O)c1ccc2c(c1)C(=O)N(CCCCCCCN1C(=O)c3ccc(C(=O)O)cc3C1=O)C2=O | 22.2 µM |
| Cc1cccc(-c2nnc3n2N=C(c2ccc(Br)cc2)CS3)c1 | > 30 µM (inactive) |
| Cc1cc(/C=N/O)c(C)n1-c1ccc(Br)cc1 | > 30 µM (inactive) |
| O=c1[nH]c(=O)n(C2CCCCCC2)c(O)c1C=NCCCN1CCOCC1 | 14.4 µM |
| COc1ccc(-c2nnc(SCC(=O)Nc3ccccc3OC)o2)cc1 | > 30 µM (inactive) |
| COc1ccc(CC(=O)Oc2cc(C)ccc2C)cc1 | > 30 µM (inactive) |
| Cc1cccc(C)c1OC(=O)Cc1ccccc1[N+](=O)[O-] | > 30 µM (inactive) |
| CC(C)NC(=O)NC(=O)CSc1nncn1C | > 30 µM (inactive) |
| CCOC(=O)c1nnn(-c2nonc2OC)c1-c1ccccc1 | > 30 µM (inactive) |
| NCCNc1cc(N2CCCC2)ccc1[N+](=O)[O-] | > 30 µM (inactive) |
| COc1cc(C2CC(=O)c3c([nH]c(C(=O)OCCOC(C)C)c3C)C2)cc(OC)c1OC (stereo unspecified) | > 30 µM (inactive) |
| CC(=O)Nc1ccc(CC#N)cc1 | > 30 µM (inactive) |
| CCOc1cc(/C=N/O)ccc1OCc1ccc([N+](=O)[O-])cc1 | > 30 µM (inactive) |
| N/C(=N\OC(=O)c1ccco1)c1ccc(Cl)cc1 | > 30 µM (inactive) |
| CCOc1ccc(N=C2NC(=O)SC2CC(=O)OC)cc1 (stereo unspecified) | > 30 µM (inactive) |
| CC1(C)CC(=O)C2=C(C1)Nc1[nH]n(-c3ccccc3)c(=O)c1C2c1ccc2c(c1)OCO2 (stereo unspecified) | > 30 µM (inactive) |
| O=C(NCCCn1ccnc1)C(=O)NC1CCCCC1 | > 30 µM (inactive) |
| C=CCn1c(O)c(C=NCCCn2ccnc2)c(=O)[nH]c1=O | 14 µM |
| CCOc1ccc2ccccc2c1/C=N/n1cncn1 | > 30 µM (inactive) |
| Nc1nc(NCCO)nc(N2CCCCCC2)c1[N+](=O)[O-] | 18.4 µM |
| COC(=O)c1ccc(CSc2nnc(SCc3ccc(C(=O)OC)o3)s2)o1 | > 30 µM (inactive) |
| CC(=NCCCn1ccnc1)c1c(O)n(C2CCCCC2)c(=O)[nH]c1=O | 6.77 µM |
| COc1cc(SC)ccc1C(=O)Nc1nc(C)cc(C)n1 | > 30 µM (inactive) |
| CN(C)C=NC(=O)/C(C#N)=C/c1ccccc1 | > 30 µM (inactive) |

| SMILES | AC50 |
| --- | --- |
| CCCCC(NS(=O)(=O)c1ccc(OC)cc1)C(=O)O (stereo unspecified) | > 30 µM (inactive) |
| O=C(Oc1cccc(NC(=O)c2ccco2)c1)c1cccc(S(=O)(=O)N2CCCCC2)c1 | > 30 µM (inactive) |
| Nc1ncc([N+](=O)[O-])s1 | > 30 µM (inactive) |
| CC(C)(C)OC(=O)N1CCC(NC(=O)c2[nH]cnc2C(=O)Nc2ccc(Cl)cc2)CC1 | > 30 µM (inactive) |
| CC1CCc2c(sc(NC(=O)CCCn3cnc([N+](=O)[O-])n3)c2C(N)=O)C1 (stereo unspecified) | > 30 µM (inactive) |
| Cc1nc(NCC2CCCO2)[nH]c(=O)c1CCC(C)C (stereo unspecified) | > 30 µM (inactive) |
| CCn1c(SCC(=O)N/N=C/c2cccs2)nc2ccccc21 | > 30 µM (inactive) |
| Cc1ccc(S(=O)(=O)Nc2ccc(O)c3ncccc23)cc1 | > 30 µM (inactive) |
| Cc1nc(SCC(=O)NCC2CCCO2)c2c3c(sc2n1)CCCC3 (stereo unspecified) | > 30 µM (inactive) |
| O=C(O)CCNc1ccc(NCCC(=O)O)c2c1C(=O)c1ccccc1C2=O | 22.7 µM |
| CC(=O)c1ccc(N=Nc2c(C)[nH][nH]c2=O)cc1 | 24.5 µM |
| Fc1cccc(Nc2ncnc3sccc23)c1 | > 30 µM (inactive) |
| O=C(Nc1ccsc1C(=O)O)c1ccccc1 | > 30 µM (inactive) |
| O=C(COC(=O)c1cc(S(=O)(=O)N2CCOCC2)ccc1F)Nc1ccc(Cl)cn1 | 2.72 µM |
| CCCCOc1ccc(CSc2nc(C)[nH]c2[N+](=O)[O-])cc1[N+](=O)[O-] | > 30 µM (inactive) |
| CCOC(=O)c1cc(CC)sc1NC(=O)CN1CCN(C(=O)c2ccco2)CC1 | > 30 µM (inactive) |
| O=C(O)c1cc(-c2ccc(/C=N/N3C(=O)C4C5C=CC(C6CC56)C4C3=O)o2)ccc1Cl (stereo unspecified) | > 30 µM (inactive) |
| COc1ccc(-c2cc(=O)c3ccccc3o2)cc1 | > 30 µM (inactive) |
| NC1=NC(=O)/C(=C/c2ccc(-c3ccc(S(N)(=O)=O)cc3)o2)S1 | 0.397 µM |
| Cc1nc2sc(C(N)=O)c(N)c2c2c1CCCC2 | 28 µM |
| CSc1nc2sc3c(c2c(=O)[nH]1)CCC(C)C3 (stereo unspecified) | > 30 µM (inactive) |
| O=C(CSc1nnc(-c2ccncc2)s1)Nc1ccccc1 | > 30 µM (inactive) |
| COc1ccc(-n2c(C)c([N+](=O)[O-])c3ccc(O)c(CN4CCCCC4)c32)cc1 | 19.1 µM |
| CN1/C(=C\C=C2/SC(=S)NC2=O)C(C)(C)c2ccccc21 | 12.7 µM |
| S=C(NCc1ccccc1)Nc1cccc2cnccc12 | > 30 µM (inactive) |
| CN(c1ccccc1)c1nc(N)c([N+](=O)[O-])c(Nc2ccccc2F)n1 | > 30 µM (inactive) |

| SMILES | AC50 |
| --- | --- |
| COc1ccc2ccccc2c1C1CC(=O)N2CN(Cc3ccco3)CSC2=C1C#N (stereo unspecified) | > 30 µM (inactive) |
| CCn1c(C)nc2cc(-c3nc4n(n3)Cc3ccccc3-4)ccc21 | 16.1 µM |
| CS(=O)(=O)N1CCN(c2ccc(NC(=O)c3ccc(Br)o3)cc2)CC1 | > 30 µM (inactive) |
| O=c1c2ccccc2oc2ccc(NCCCn3ccnc3)cc12 | > 30 µM (inactive) |
| COC(=O)C1=C(C)N(C)C(=O)/C1=C\c1ccco1 | > 30 µM (inactive) |
| CCc1ccc(N2CC(C(=O)Nc3nccs3)CC2=O)cc1 (stereo unspecified) | > 30 µM (inactive) |
| COc1c(OC)c(O)c2c(=O)c(O)c(-c3ccccc3)oc2c1OC | > 30 µM (inactive) |
| CCN1CCN(c2nc(Nc3ccccc3F)nc(N)c2[N+](=O)[O-])CC1 | > 30 µM (inactive) |
| CCOC(=O)c1cc(CC)sc1NC(=O)C1CC1 | > 30 µM (inactive) |
| O=c1[nH]c2c(s1)C(c1cccnc1)C1C3CCC(C3)C1S2 (stereo unspecified) | 8.66 µM |
| COc1ccc(CC(=O)NCCc2cnc[nH]2)cc1 | > 30 µM (inactive) |
| N#CC1=C2SCN(Cc3ccccc3)CN2C(=O)CC1c1ccccc1F (stereo unspecified) | > 30 µM (inactive) |
| CSc1nc(SCCN(C)C)c2c3c(sc2n1)COC(C)(C)C3 | > 30 µM (inactive) |
| COc1ccccc1/C=C1\S/C(=N/NC(=O)c2cccc(Br)c2)NC1=O | > 30 µM (inactive) |
| Cc1cccc(C(=O)Nc2cccc(-c3cnc4ccccc4n3)c2)c1 | > 30 µM (inactive) |
| Cc1ccc(N2CC(C(=O)Nc3ncc([N+](=O)[O-])s3)CC2=O)cc1 (stereo unspecified) | 11.4 µM |
| Cc1cc(N2CCN(c3ccccc3)CC2)n2ncnc2n1 | > 30 µM (inactive) |
| CCN1C(=O)/C(=C\c2ccco2)C(C(=O)OC)=C1C | > 30 µM (inactive) |
| COc1ccc(N=c2oc3c(OC)cccc3cc2C(=O)NCc2ccco2)c(OC)c1 | > 30 µM (inactive) |
| Cc1sc2ncnc(NCCN3CCOCC3)c2c1C | > 30 µM (inactive) |
| O=S(=O)(O)c1ccc(N=Nc2ccccc2)cc1 | > 30 µM (inactive) |
| CCn1c2ccc(F)cc2c2nc3ccccc3nc21 | > 30 µM (inactive) |
| COc1ccc(OC)c(C2CC(=O)N3CN(c4ccccc4)CSC3=C2C#N)c1 (stereo unspecified) | > 30 µM (inactive) |
| C/C(=N\NC(=O)c1nnn(-c2nonc2N)c1-c1cccs1)c1ccc(O)cc1 | 1.17 µM |
